Measured values reported in patent publication US20250263415A1, “TERTIARY AMIDE DERIVATIVES SUBSTITUTED WITH 4-MEMBERED RING STRUCTURE” (Sumitomo Pharma Co., Ltd., priority 2024, published 2025).

Assays:
G-401 xenograft [1] = test: Drug efficacy evaluation by oral administration using G-401 xenograft model mice; assay type: in vivo
Description: (§1) G-401 cells (ATCC) were intradermally transplanted into 4-7-week-old BALB/cAnNCrj-nu/nu mice (CAnN.Cg-Foxnl/CrlCrlj, Jackson Laboratory Japan) at 5×10^5 cells/mouse. After confirming the engraftment of G-401 cells 10-40 days after transplantation, the test compound suspended in a solvent such as 0.5% methylcellulose solution was orally administered twice a day at a dose of 1-100 mg/kg. The tumor volume was measured over time from the start of administration, and the effect of tumor volume reduction by administration of the test compound was evaluated. The tumor volume can be calculated from the following equation using the minor axis and major axis of the tumor measured with an electronic caliper (Mitutoyo).
A control administration group administered with only a solvent such as 0.5% methylcellulose solution and a test compound administration group were compared, and the antitumor effect was evaluated by calculating T/C from the following equation.

[2] = Pharmacokinetic study in mice; assay type: in vivo
Description: The test compound was administered to 7-week-old female BALE/c (BALB/cAnN CrlCrlj) mice intravenously (dosage: 1 mg/kg) in a 50% PEG solution (0.01 mol/L HCl) or orally (dosage: 10 mg/kg) in a 0.5% methylcellulose aqueous solution, and blood was collected at the following times: • Intravenous administration: 5 min, 15 min, 30 min, 1 hr, 2 hr, 4 hr, 6 hr, and 24 hr after administration • Oral administration: 15 min, 30 min, 1 hr, 2 hr, 4 hr, 6 hr, and 24 hr after administration
The collected blood was centrifuged at 3000 rpm×10 min using a refrigerated centrifuge set at 4° C., and the obtained plasma was measured by LC-MS. A calibration curve was prepared from the value (peak ratio) obtained by dividing the peak area of the test substance by the peak area of the internal standard substance in MS and the concentration of the plasma calibration curve sample. The concentration in the sample was calculated from the peak ratio and the calibration curve of each sample.

hDAT = hDAT (Homo sapiens (Human), UniProt Q01959); test: Dopamine receptor inhibitory activity evaluation (binding assay, CHO-S/hDAT membranes); details: off-target
Description: The binding evaluation assay was outsourced to Eurofins. Specifically, CHO—S/hDAT cells were homogenized in an incubation buffer consisting of 50 mmol/L Tris-HCl, pH 7.4, 100 mmol/L NaCl, 1 μmol/L Leupeptin, and 10 μmol/L PMSF. The membrane pellet obtained by centrifugation was resuspended in the incubation buffer to prepare a membrane preparation. The test compound (1-10 μmol/L DMSO solution), the membrane preparation, and 0.15 nmol/L […] were mixed and incubated at 4° C. for 180 minutes. The cell membrane-[^125I]RTI-55 complex was bound to a GF/B filter mat by vacuum filtration and washed with 50 mmol/L Tris-HCl, pH 7.4. The effect on the receptor was assessed by measuring radioactivity using a scintillation counter.

Solubility test = assay type: physicochemical; details: pH 2.0 and pH 3.0 buffers
Description: The solubility was measured for Examples 7, 10, 20, 23, 24, and 30 to 34, Comparative Example 1, and Comparative Example 2. The test compound was added to 10 mmol/L glycine buffer (pH 2.0) and 10 mmol/L citrate buffer (pH 3.0), and the mixture was stored in a thermostatic chamber at 5° C. After standing overnight, the mixture was filtered through a membrane filter, and the concentration of the filtrate was measured by HPLC.
The HPLC measurement conditions are as follows.
HPLC conditions • Column: Acquity UPLC BEH C18, 1.7 μm, 50×2.1 mm • Column temperature: 40° C. • Mobile phase: A: 0.1% trifluoroacetic acid-containing water • B: acetonitrile • A/B (min): 95/5 (0)→0/100 (3.5)→0/100 (4)→95/5 (4.01)→95/5 (5) • Flow rate: 0.8 mL/min • Detection: UV visible detector, measurement wavelength 254 nm • Injection volume: 5 μL or • Column: Acquity UPLC BEH C18, 1.7 μm, 50×2.1 mm • Column temperature: 40° C. • Mobile phase: A: 0.1% trifluoroacetic acid-containing water • B: acetonitrile • A/B (min): • 80/20 (0)→40/60 (3.0)→0/100 (3.5)→0/100 (4)→80/20 (4.01)→80/20 (5) • Flow rate: 0.8 mL/min • Detection: UV visible detector, measurement wavelength 254 nm • Injection volume: 2 μL or • Column: Acquity UPLC BEH C18, 1.7 μm, 50×2.1 mm • Column temperature: 40° C. • Mobile phase: A: 0.1% trifluoroacetic acid-containing water • B: acetonitrile • A/B (min): • 80/20 (0)→40/60 (3.0)→0/100 (3.5)→0/100 (4)→100/0 (4.01)→100/0 (5) • Flow rate: 0.8 mL/min • Detection: UV visible detector, measurement wavelength 254 nm • Injection volume: 3 μL

hSERT = hSERT (Homo sapiens (Human), UniProt P31645); test: Serotonin receptor inhibitory activity evaluation (binding assay, HEK293/hSERT membranes); details: off-target
Description: The binding evaluation assay was outsourced to Eurofins. Specifically, HEK293/hSERT cells were homogenized in a buffer consisting of 100 mmol/L NaCl, 1 μmol/L Leupeptin, 10 μmol/L PMSF, and 50 mmol/L Tris-HCl (pH7.4). The membrane pellet obtained by centrifugation was resuspended in an incubation buffer consisting of 50 mmol/L Tris-HCl (pH 7.4), 120 mmol/L NaCl, and 5 mmol/L KCl to prepare a membrane preparation. The test compound (1-10 μmol/L DMSO solution), the membrane preparation, and 0.4 nmol/L [^3H]Paroxetin were mixed and incubated at 25° C. for 60 minutes. The cell membrane-[^3H]Paroxetin complex was bound to a GF/B filter mat by vacuum filtration and washed with 50 mmol/L Tris-HCl (pH 7.4). The effect on the receptor was assessed by measuring radioactivity using a scintillation counter.

G-401 xenograft [3] = test: Drug efficacy evaluation by intravenous administration using G-401 xenograft mice model; assay type: in vivo; details: G-401 xenograft model
Description: as §1, with “as 10 mmol/L glycine buffer” for “as 0.5% methylcellulose”, “solution (pH 2.0)” for “solution”, “was” for “was orally”, “administered via the tail vein at least once” for “administered twice”, “a week” for “a day”, “of 0.015-20” for “of 1-100”
A control administration group administered with only a solvent such as 10 mmol/L glycine buffer solution (pH 2.0) and a test compound administration group were compared, and the antitumor effect was evaluated by calculating T/C from the following equation.

recombinant p300 = recombinant p300 (Homo sapiens (Human), UniProt Q09472); test: HAT activity inhibition experiment (SensoLyte HAT(p300) Assay Kit); assay type: biochemical
Description: The HAT activity inhibitory ability of HAT inhibitors was evaluated using SensoLyte HAT(p300) Assay Kit (ANASPEC, AS-72172). Specifically, 7.5 μL of the compound of Examples […] diluted with assay buffer was added to 7.5 μL of recombinant p300 solution diluted 10 times with assay buffer, and the mixture was incubated at room temperature for 10 minutes. 7.5 μL of acetyl CoA solution diluted 10 times with assay buffer and 15 μL of histone H3 peptide diluted 10 times with assay buffer were added thereto, and the mixture was incubated at 37° C. for 30 minutes. 37.5 μL of Stop Solution was added to stop the reaction. 75 μL of p300 Developer solution diluted 50 times with assay buffer was added, and the mixture was incubated at room temperature for 30 minutes under light-shielded conditions. The fluorescence at 513 nm when irradiated with 389 nm excitation light was measured using a multiplate reader.

G-401 cells = test: Cell proliferation inhibition experiment using G-401 cells; assay type: cell-based
Description: G-401 cells (derived from malignant rhabdoid tumor) were obtained from the American Type Culture Collection (ATCC). G-401 cells were cultured in McCoy's 5A medium containing 10% fetal bovine serum and 1% penicillin/streptomycin under conditions of 37° C. and 5% CO2.
500 cells per well were seeded in a 384-well plate. One day after seeding, Examples 1 to 35 were added so that the final concentration of DMSO was 0.1%, and the cells were cultured for 3 days. After the culture was completed, the cell viability was measured using CellTiter-Glo Luminescent Cell Viability Assay (Promega, G7570).

Chain of hDAT (Q01959 whole entry): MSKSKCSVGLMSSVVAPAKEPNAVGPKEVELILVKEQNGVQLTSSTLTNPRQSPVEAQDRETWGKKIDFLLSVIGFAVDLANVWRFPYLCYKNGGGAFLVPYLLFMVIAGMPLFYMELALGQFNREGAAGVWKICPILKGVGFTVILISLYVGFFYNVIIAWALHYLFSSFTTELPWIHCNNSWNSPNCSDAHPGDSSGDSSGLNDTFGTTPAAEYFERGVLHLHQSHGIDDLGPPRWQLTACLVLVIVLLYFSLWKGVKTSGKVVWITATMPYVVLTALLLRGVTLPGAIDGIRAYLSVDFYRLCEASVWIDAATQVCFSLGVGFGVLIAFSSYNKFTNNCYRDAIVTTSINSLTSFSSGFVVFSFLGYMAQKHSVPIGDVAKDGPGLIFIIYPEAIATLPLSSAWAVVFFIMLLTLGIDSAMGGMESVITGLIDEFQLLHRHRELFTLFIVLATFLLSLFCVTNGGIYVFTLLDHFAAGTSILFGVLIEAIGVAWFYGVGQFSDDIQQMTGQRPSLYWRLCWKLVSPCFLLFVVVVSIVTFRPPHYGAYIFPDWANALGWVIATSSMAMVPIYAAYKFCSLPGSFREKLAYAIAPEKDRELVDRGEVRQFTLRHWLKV
Chain of hSERT (P31645 whole entry): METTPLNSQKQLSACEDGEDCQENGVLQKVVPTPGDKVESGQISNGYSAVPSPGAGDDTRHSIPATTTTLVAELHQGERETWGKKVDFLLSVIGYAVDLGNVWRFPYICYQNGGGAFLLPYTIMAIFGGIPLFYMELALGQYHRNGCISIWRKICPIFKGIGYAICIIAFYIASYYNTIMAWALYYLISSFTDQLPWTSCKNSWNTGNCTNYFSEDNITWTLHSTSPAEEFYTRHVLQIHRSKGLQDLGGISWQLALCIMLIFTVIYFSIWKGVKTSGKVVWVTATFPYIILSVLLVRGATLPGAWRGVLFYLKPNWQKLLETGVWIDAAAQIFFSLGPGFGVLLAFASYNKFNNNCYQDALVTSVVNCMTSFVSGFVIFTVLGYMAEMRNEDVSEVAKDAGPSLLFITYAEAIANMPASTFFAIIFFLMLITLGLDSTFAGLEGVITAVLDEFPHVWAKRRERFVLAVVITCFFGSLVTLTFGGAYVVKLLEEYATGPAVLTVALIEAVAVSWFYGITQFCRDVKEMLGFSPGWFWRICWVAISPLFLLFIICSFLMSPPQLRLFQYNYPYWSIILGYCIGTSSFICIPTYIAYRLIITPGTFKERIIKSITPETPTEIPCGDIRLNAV
Chain of recombinant p300 (Q09472 whole entry): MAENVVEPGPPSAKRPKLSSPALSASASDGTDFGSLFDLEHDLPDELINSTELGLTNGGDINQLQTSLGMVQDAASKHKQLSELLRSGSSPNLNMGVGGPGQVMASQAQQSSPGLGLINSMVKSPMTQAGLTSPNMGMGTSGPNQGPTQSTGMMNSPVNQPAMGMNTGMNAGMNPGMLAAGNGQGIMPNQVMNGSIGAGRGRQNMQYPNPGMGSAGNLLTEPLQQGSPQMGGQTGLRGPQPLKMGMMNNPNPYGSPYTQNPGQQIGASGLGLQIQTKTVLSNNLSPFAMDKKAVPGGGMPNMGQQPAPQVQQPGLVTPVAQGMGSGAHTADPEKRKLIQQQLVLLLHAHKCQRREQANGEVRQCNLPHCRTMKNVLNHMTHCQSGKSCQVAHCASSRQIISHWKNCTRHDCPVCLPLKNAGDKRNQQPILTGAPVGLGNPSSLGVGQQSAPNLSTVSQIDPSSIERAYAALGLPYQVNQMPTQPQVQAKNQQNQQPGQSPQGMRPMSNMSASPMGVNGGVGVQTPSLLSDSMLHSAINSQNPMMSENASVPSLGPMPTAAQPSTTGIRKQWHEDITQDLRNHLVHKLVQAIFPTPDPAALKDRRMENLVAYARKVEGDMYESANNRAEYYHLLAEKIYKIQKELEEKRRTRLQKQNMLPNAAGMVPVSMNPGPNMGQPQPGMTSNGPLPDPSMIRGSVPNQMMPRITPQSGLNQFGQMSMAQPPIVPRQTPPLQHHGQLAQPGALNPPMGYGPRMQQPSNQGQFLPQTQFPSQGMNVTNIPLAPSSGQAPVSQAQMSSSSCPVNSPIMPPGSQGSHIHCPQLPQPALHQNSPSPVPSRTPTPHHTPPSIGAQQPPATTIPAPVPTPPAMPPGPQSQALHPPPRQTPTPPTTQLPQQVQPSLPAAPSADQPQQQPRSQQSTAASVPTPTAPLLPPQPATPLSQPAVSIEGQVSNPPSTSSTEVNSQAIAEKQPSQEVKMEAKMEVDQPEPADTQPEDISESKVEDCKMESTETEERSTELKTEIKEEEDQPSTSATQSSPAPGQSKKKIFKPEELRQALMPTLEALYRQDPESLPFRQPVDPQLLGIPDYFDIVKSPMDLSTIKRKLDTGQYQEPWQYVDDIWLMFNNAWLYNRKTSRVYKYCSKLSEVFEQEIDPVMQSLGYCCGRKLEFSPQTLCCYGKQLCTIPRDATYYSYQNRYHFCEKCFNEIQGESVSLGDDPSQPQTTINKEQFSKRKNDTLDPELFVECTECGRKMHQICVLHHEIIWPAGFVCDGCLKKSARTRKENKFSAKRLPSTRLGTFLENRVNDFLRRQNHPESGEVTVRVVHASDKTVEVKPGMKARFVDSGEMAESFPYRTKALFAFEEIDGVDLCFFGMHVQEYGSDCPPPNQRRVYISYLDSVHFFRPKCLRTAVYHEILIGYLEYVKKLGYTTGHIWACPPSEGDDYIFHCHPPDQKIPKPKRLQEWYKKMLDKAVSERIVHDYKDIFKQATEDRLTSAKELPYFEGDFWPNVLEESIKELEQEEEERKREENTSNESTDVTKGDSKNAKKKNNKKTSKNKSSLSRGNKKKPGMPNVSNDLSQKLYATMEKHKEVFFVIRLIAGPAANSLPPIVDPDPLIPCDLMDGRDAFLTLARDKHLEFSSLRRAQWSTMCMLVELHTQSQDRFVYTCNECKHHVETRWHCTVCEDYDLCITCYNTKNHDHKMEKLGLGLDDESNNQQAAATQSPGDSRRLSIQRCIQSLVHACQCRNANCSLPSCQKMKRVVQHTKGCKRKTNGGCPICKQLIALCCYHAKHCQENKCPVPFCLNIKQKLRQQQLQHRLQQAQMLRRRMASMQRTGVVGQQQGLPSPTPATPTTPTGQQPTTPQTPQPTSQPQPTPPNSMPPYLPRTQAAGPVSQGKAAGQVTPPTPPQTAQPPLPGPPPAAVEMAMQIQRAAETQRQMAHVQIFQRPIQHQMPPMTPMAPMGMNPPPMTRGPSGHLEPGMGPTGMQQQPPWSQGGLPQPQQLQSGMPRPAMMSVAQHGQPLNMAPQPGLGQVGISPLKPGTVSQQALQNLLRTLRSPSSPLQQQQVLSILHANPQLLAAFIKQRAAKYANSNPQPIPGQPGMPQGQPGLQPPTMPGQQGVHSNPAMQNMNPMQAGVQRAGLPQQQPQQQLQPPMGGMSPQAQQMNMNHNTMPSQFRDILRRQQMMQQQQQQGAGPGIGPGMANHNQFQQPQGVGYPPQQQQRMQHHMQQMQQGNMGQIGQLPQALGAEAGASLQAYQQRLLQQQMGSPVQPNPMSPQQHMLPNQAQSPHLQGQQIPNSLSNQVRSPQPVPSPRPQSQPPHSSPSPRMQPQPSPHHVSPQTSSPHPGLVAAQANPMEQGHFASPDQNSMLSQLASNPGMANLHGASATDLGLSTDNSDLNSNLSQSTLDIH

| HAT activity inhibition (in words) (recombinant p300) | Compound | Antitumor effect, oral administration (in words) (G-401 xenograft [1]) | Pharmacokinetics (in words) [2] | Inhibitory effect on dopamine receptors (in words) (hDAT) | Solubility (in words) (Solubility test) | Inhibitory effect on serotonin receptors (in words) (hSERT) | Antitumor effect, intravenous administration (in words) (G-401 xenograft [3]) | Cell proliferation inhibitory effect on G-401 cells (in words) (G-401 cells) |
| --- | --- | --- | --- | --- | --- | --- | --- | --- |
| – | CN1CC(N(Cc2ccc(F)cc2)C(=O)CN2C(=O)N[C@]3(C[C@@H](F)c4cc(-c5cnn(C)c5)ccc43)C2=O)(C(F)(F)F)C1 [Example 10, 2-[(1′S,3′R)-3′-fluoro-5′-(1-methyl-1H-pyrazol-4-yl)-2,5-dioxo-2′,3′-dihydrospiro[imidazolidine-4,1′-inden]-1-yl]-N-[(4-fluorophenyl)methyl]-N-[1-methyl-3-(trifluoromethyl)azetidin-3-yl]acetamide] | strong antitumor effects | excellent pharmacokinetics | did not show strong inhibitory activity | high solubility | did not show strong inhibitory activity | strong antitumor effects | – |
| strong inhibition of HAT activity | CN1CC(N(Cc2ccc(F)cc2)C(=O)CN2C(=O)N[C@]3(C[C@@H](F)c4cc(-c5cnn(C)c5F)ccc43)C2=O)(C(F)(F)F)C1 [Example 15, 2-[(1′S,3′R)-3′-fluoro-5′-(5-fluoro-1-methyl-1H-pyrazol-4-yl)-2,5-dioxo-2′,3′-dihydrospiro[imidazolidine-4,1′-inden]-1-yl]-N-[(4-fluorophenyl)methyl]-N-[1-methyl-3-(trifluoromethyl)azetidin-3-yl]acetamide] | – | – | – | – | – | – | strong cell proliferation inhibitory effect |
| strong inhibition of HAT activity | CN1CC(N(Cc2ccc(F)cc2)C(=O)CN2C(=O)N[C@]3(C[C@@H](F)c4cc(-c5cn(C)nc5F)ccc43)C2=O)(C(F)(F)F)C1 [Example 17, 2-[(1′S,3′R)-3′-fluoro-5′-(3-fluoro-1-methyl-1H-pyrazol-4-yl)-2,5-dioxo-2′,3′-dihydrospiro[imidazolidine-4,1′-inden]-1-yl]-N-[(4-fluorophenyl)methyl]-N-[1-methyl-3-(trifluoromethyl)azetidin-3-yl]acetamide] | – | – | – | – | – | – | strong cell proliferation inhibitory effect |
| – | CN1CC(N(Cc2ccc(F)cn2)C(=O)CN2C(=O)N[C@]3(C[C@@H](F)c4cc(-c5cnn(C)c5)ccc43)C2=O)(C(F)(F)F)C1 [Example 20, 2-[(1′S,3′R)-3′-fluoro-5′-(1-methyl-1H-pyrazol-4-yl)-2,5-dioxo-2′,3′-dihydrospiro[imidazolidine-4,1′-inden]-1-yl]-N-[(5-fluoropyridin-2-yl)methyl]-N-[1-methyl-3-(trifluoromethyl)azetidin-3-yl]acetamide] | strong antitumor effects | excellent pharmacokinetics | did not show strong inhibitory activity | high solubility | did not show strong inhibitory activity | strong antitumor effects | strong cell proliferation inhibitory effect |
| – | O=C1N[C@]2(C[C@@H](F)c3cc(-c4cnn(C5CCN(C6COC6)CC5)c4)ccc32)C(=O)N1CC(=O)N(Cc1ccc(F)cn1)C1(C(F)(F)F)COC1 [Example 23, 2-[(1′S,3′R)-3′-fluoro-5′-{1-[1-(oxetan-3-yl)piperidin-4-yl]-1H-pyrazol-4-yl}-2,5-dioxo-2′,3′-dihydrospiro[imidazolidine-4,1′-inden]-1-yl]-N-[(5-fluoropyridin-2-yl)methyl]-N-[3-(trifluoromethyl)oxetan-3-yl]acetamide] | strong antitumor effects | excellent pharmacokinetics | did not show strong inhibitory activity | high solubility | did not show strong inhibitory activity | strong antitumor effects | – |
